Assay results reported in patent EP4653016A1, “CONJUGATE OF ERIBULIN DRUG” (SystImmune, Inc., priority 2023, dated 2024).

Tests used:
Assay in all cases: Cytotoxicity of compounds to tumor cell lines (MTS, 5 days)
Type in all cases: cell-based
[1] = tested on: A431(human epidermal carcinoma cells); details: A-431, 120 h, A431, 5 days
Experimental: (§1) In the present invention, various human-derived tumor cell lines (BxPC-3 (human orthotopic pancreatic adenocarcinoma cell), SW620 (human colon cancer cell), H1975 (human lung adenocarcinoma cell), HCC827 (human lung adenocarcinoma cell), FaDu (human pharyngeal squamous cell carcinoma cell) and A431(human epidermal carcinoma cells)) were used as experimental models to evaluate the cytotoxicity of compound to tumor cell lines. A certain number of tumor cells were seeded into a 96-well plate. After the cells adhered to the wall, gradient dilutions of tested compounds were added to the test cells, followed by incubation at 37 °C and 5% CO2 for 5 days. Cell viability was measured using MTS, and the inhibitory effect of the control compounds and the tested compounds on the tumor cell lines was evaluated byIC50. The compound with a starting concentration of 4000 nM was diluted 7 folds, with a total of 8 concentration points. […] Table 5: In vitro pharmacodynamic activity of control compounds and tested compounds in human-derived tumor cell lines BxPC-3, SW620 and H1975: […]

[2] = tested on: BxPC-3 (human orthotopic pancreatic adenocarcinoma cell); details: for IC50: Homo sapiens, 120 h, BxPC-3, 5 days, MTS; for anti-tumor effects: in words, BxPC-3, SW620, H1975, HCC827, FaDu and A431 cell models
Experimental: as §1

[3] = tested on: FaDu (human pharyngeal squamous cell carcinoma cell); details: 120 h
Experimental: as §1

[4] = tested on: H1975 (human lung adenocarcinoma cell); details: NCI-H1975, 120 h, H1975, 5 days
Experimental: as §1

[5] = tested on: HCC827 (human lung adenocarcinoma cell); details: 120 h, HCC827, 5 days
Experimental: as §1

[6] = tested on: SW620 (human colon cancer cell); details: SW-620, 120 h, SW620, 5 days
Experimental: as §1

C=C1C[C@@H]2CC[C@@]34C[C@H]5O[C@H]6[C@@H](O3)[C@H]3O[C@H](CC[C@@H]3O[C@H]6[C@H]5O4)CC(=O)C[C@@H]3[C@@H](OC)[C@@H](C[C@H](O)CNC)O[C@H]3C[C@H]3O[C@@H](CC[C@@H]1O2)C[C@@H](C)C3=C [D-2]
IC50 [1]: 20 pM | IC50 [2]: 30 pM | IC50 [3]: 370 pM | IC50 [4]: 250 pM | IC50 [5]: 25 pM | IC50 [6]: 1250 pM

C=C1C[C@@H]2CC[C@@]34C[C@H]5O[C@H]6[C@@H](O3)[C@H]3O[C@H](CC[C@@H]3O[C@H]6[C@H]5O4)CC(=O)C[C@@H]3[C@@H](OC)[C@@H](C[C@H](O)CN(C)C(=O)OC(C)(C)C)O[C@H]3C[C@H]3O[C@@H](CC[C@@H]1O2)C[C@@H](C)C3=C [D-3]
IC50 [1]: < 5 pM | IC50 [2]: < 5 pM | anti-tumor effects [2]: the best effects | IC50 [3]: < 5 pM | IC50 [4]: < 5 pM | IC50 [5]: < 5 pM | IC50 [6]: < 5 pM

C=C1C[C@@H]2CC[C@@]34C[C@H]5O[C@H]6[C@@H](O3)[C@H]3O[C@H](CC[C@@H]3O[C@H]6[C@H]5O4)CC(=O)C[C@@H]3[C@@H](OC)[C@@H](C[C@H](O)CN)O[C@H]3C[C@H]3O[C@@H](CC[C@@H]1O2)C[C@@H](C)C3=C [D-4(eribulin), eribulin]
IC50 [1]: 30 pM | IC50 [2]: 60 pM | IC50 [3]: 730 pM | IC50 [4]: 390 pM | IC50 [5]: 50 pM | IC50 [6]: 2560 pM

C=CCOC(=O)N(C)C[C@@H](O)C[C@H]1O[C@H]2C[C@H]3O[C@@H](CC[C@@H]4O[C@@H](CC[C@@]56C[C@H]7O[C@H]8[C@@H](O5)[C@H]5O[C@H](CC[C@@H]5O[C@H]8[C@H]7O6)CC(=O)C[C@@H]2[C@H]1OC)CC4=C)C[C@@H](C)C3=C [D-7]
IC50 [1]: < 5 pM | IC50 [2]: < 5 pM | anti-tumor effects [2]: the best effects | IC50 [3]: 10 pM | IC50 [4]: 10 pM | IC50 [5]: < 5 pM | IC50 [6]: < 5 pM

C=C1C[C@@H]2CC[C@@]34C[C@H]5O[C@H]6[C@@H](O3)[C@H]3O[C@H](CC[C@@H]3O[C@H]6[C@H]5O4)CC(=O)C[C@@H]3[C@@H](OC)[C@@H](C[C@H](O)CN(C)C(=O)OCc4ccccc4)O[C@H]3C[C@H]3O[C@@H](CC[C@@H]1O2)C[C@@H](C)C3=C [D-8]
IC50 [1]: < 5 pM | IC50 [2]: < 5 pM | anti-tumor effects [2]: the best effects | IC50 [3]: < 5 pM | IC50 [4]: < 5 pM | IC50 [5]: < 5 pM | IC50 [6]: < 5 pM

C=C1C[C@@H]2CC[C@@]34C[C@H]5O[C@H]6[C@@H](O3)[C@H]3O[C@H](CC[C@@H]3O[C@H]6[C@H]5O4)CC(=O)C[C@@H]3[C@@H](OC)[C@@H](C[C@H](O)CN(C)C(=O)c4ccccc4)O[C@H]3C[C@H]3O[C@@H](CC[C@@H]1O2)C[C@@H](C)C3=C [D-9]
IC50 [1]: < 5 pM | IC50 [2]: < 5 pM | anti-tumor effects [2]: the best effects | IC50 [3]: < 5 pM | IC50 [4]: < 5 pM | IC50 [5]: < 5 pM | IC50 [6]: < 5 pM

C=C1C[C@@H]2CC[C@@]34C[C@H]5O[C@H]6[C@@H](O3)[C@H]3O[C@H](CC[C@@H]3O[C@H]6[C@H]5O4)CC(=O)C[C@@H]3[C@@H](OC)[C@@H](C[C@H](O)CN(C)C(=O)C(C)C)O[C@H]3C[C@H]3O[C@@H](CC[C@@H]1O2)C[C@@H](C)C3=C [D-11]
IC50 [1]: 20 pM | IC50 [2]: 10 pM | IC50 [3]: 80 pM | IC50 [4]: 60 pM | IC50 [5]: 10 pM | IC50 [6]: 150 pM

C=C1C[C@@H]2CC[C@@]34C[C@H]5O[C@H]6[C@@H](O3)[C@H]3O[C@H](CC[C@@H]3O[C@H]6[C@H]5O4)CC(=O)C[C@@H]3[C@@H](OC)[C@@H](C[C@H](O)CN(C)C(=O)C(C)(C)C)O[C@H]3C[C@H]3O[C@@H](CC[C@@H]1O2)C[C@@H](C)C3=C [D-12]
IC50 [1]: < 5 pM | IC50 [2]: < 5 pM | anti-tumor effects [2]: the best effects | IC50 [3]: < 5 pM | IC50 [4]: < 5 pM | IC50 [5]: < 5 pM | IC50 [6]: < 5 pM

C=C1C[C@@H]2CC[C@@]34C[C@H]5O[C@H]6[C@@H](O3)[C@H]3O[C@H](CC[C@@H]3O[C@H]6[C@H]5O4)CC(=O)C[C@@H]3[C@@H](OC)[C@@H](C[C@H](O)CNC(=O)OC(C)(C)C)O[C@H]3C[C@H]3O[C@@H](CC[C@@H]1O2)C[C@@H](C)C3=C [D-13]
IC50 [1]: < 5 pM | IC50 [2]: < 5 pM | anti-tumor effects [2]: the best effects | IC50 [3]: < 5 pM | IC50 [4]: < 5 pM | IC50 [5]: < 5 pM | IC50 [6]: < 5 pM

C=C1C[C@@H]2CC[C@@]34C[C@H]5O[C@H]6[C@@H](O3)[C@H]3O[C@H](CC[C@@H]3O[C@H]6[C@H]5O4)CC(=O)C[C@@H]3[C@@H](OC)[C@@H](C[C@H](O)CN(C)S(C)(=O)=O)O[C@H]3C[C@H]3O[C@@H](CC[C@@H]1O2)C[C@@H](C)C3=C [D-14]
IC50 [1]: 10 pM | IC50 [2]: 10 pM | IC50 [3]: 160 pM | IC50 [4]: 100 pM | IC50 [5]: 10 pM | IC50 [6]: 190 pM

C=C1C[C@@H]2CC[C@@]34C[C@H]5O[C@H]6[C@@H](O3)[C@H]3O[C@H](CC[C@@H]3O[C@H]6[C@H]5O4)CC(=O)C[C@@H]3[C@@H](OC)[C@@H](C[C@H](O)CN(C)C(=O)C(F)F)O[C@H]3C[C@H]3O[C@@H](CC[C@@H]1O2)C[C@@H](C)C3=C [D-15]
IC50 [1]: 20 pM | IC50 [2]: 30 pM | IC50 [3]: 330 pM | IC50 [4]: 140 pM | IC50 [5]: 20 pM | IC50 [6]: 690 pM

C=C1C[C@@H]2CC[C@@]34C[C@H]5O[C@H]6[C@@H](O3)[C@H]3O[C@H](CC[C@@H]3O[C@H]6[C@H]5O4)CC(=O)C[C@@H]3[C@@H](OC)[C@@H](C[C@H](O)CNC(=O)[C@H]4C[C@@H](OC)C4)O[C@H]3C[C@H]3O[C@@H](CC[C@@H]1O2)C[C@@H](C)C3=C [D-21]
IC50 [1]: 120 pM | IC50 [2]: 50 pM | IC50 [3]: 390 pM | IC50 [4]: 240 pM | IC50 [5]: 40 pM | IC50 [6]: 240 pM
